ChEMBL document CHEMBL3885881, “DrugMatrix”

Species on record: Rattus norvegicus
Experiment: DrugMatrix - Regimen: Daily Repeat
Assay type: toxicity, organism-based, Sprague-Dawley
Parameters: regimen Daily Repeat, gender Male, age 6-8 weeks
Settings: in vivo, iv, vehicle 100 % SALINE; for ABSOLUTE BASOPHIL / ABSOLUTE EOSINOPHIL / ABSOLUTE LYMPHOCYTE / ABSOLUTE MONOCYTE / ABSOLUTE SEGMENTED NEUTROPHIL / BASOPHIL / EOSINOPHIL / ERYTHROCYTE COUNT / HEMATOCRIT / HEMOGLOBIN / LEUKOCYTE COUNT / LYMPHOCYTE / MEAN CORPUSCULAR HEMOGLOBIN / MEAN CORPUSCULAR HEMOGLOBIN CONCENTRATION / MEAN CORPUSCULAR VOLUME / MONOCYTE / NUCLEATED RED BLOOD CELLS / PLATELET COUNT: tissue Blood; for ALANINE AMINOTRANSFERASE / ALBUMIN / ALKALINE PHOSPHATASE / ASPARTATE AMINOTRANSFERASE / BLOOD UREA NITROGEN / CARBON DIOXIDE / CHLORIDE / CHOLESTEROL / CREATINE PHOSPHOKINASE / CREATININE / GLUCOSE / LACTATE DEHYDROGENASE / PHOSPHORUS / POTASSIUM / SODIUM / TOTAL BILIRUBIN / TOTAL PROTEIN / URIC ACID: tissue Plasma
[1] = 25 mg/kg, 72 h, dose level Low, time 3 day
[2] = 25 mg/kg, 120 h, dose level Low, time 5 day
[3] = 160 mg/kg, 72 h, dose level High, time 3 day
[4] = 160 mg/kg, 120 h, dose level High, time 5 day

With CN[C@H](CC(C)C)C(=O)N[C@H]1C(=O)N[C@@H](CC(N)=O)C(=O)N[C@H]2C(=O)N[C@H]3C(=O)N[C@H](C(=O)N[C@H](C(=O)O)c4cc(O)cc(O)c4-c4cc3ccc4O)[C@H](O)c3ccc(c(Cl)c3)Oc3cc2cc(c3O[C@@H]2O[C@H](CO)[C@@H](O)[C@H](O)[C@H]2O[C@H]2C[C@](C)(N)[C@H](O)[C@H](C)O2)Oc2ccc(cc2Cl)[C@H]1O [VANCOMYCIN] the “ABSOLUTE BASOPHIL” value [1] was 0 CELLS/uL, the “ABSOLUTE EOSINOPHIL” value [1] was 39.33 CELLS/uL and the “ABSOLUTE LYMPHOCYTE” value [1] was 11516.33 CELLS/uL. The “ABSOLUTE MONOCYTE” value [1] was 255.67 CELLS/uL, the “ABSOLUTE SEGMENTED NEUTROPHIL” value [1] was 1222 CELLS/uL and the BASOPHIL [1] was 0%. For the same compound, the EOSINOPHIL [1] was 0.33%, the “ERYTHROCYTE COUNT” value [1] was 5.26 x10E6/uL and the HEMATOCRIT [1] was 34.27%. For the same compound, the HEMOGLOBIN [1] was 13.57 G/DL, the “LEUKOCYTE COUNT” value [1] was 13.03 x10E3/uL and the LYMPHOCYTE [1] was 88.33%. For the same compound, the “MEAN CORPUSCULAR HEMOGLOBIN” value [1] was 25.87 pg, the “MEAN CORPUSCULAR HEMOGLOBIN CONCENTRATION” value [1] was 39.63 G/DL and the “MEAN CORPUSCULAR VOLUME” value [1] was 65.13 fL. For the same compound, the MONOCYTE [1] was 2%, the “NUCLEATED RED BLOOD CELLS” value [1] was 0 /100WBC and the “PLATELET COUNT” value [1] was 1239 x10E3/uL. For the same compound, the “ALANINE AMINOTRANSFERASE” value [1] was 49 u/L, the ALBUMIN [1] was 4.13 G/DL and the “ALKALINE PHOSPHATASE” value [1] was 403 u/L. The “ASPARTATE AMINOTRANSFERASE” value [1] was 88 u/L, the “BLOOD UREA NITROGEN” value [1] was 17.67 mg/dL and the “CARBON DIOXIDE” value [1] was 28 mmol/L. For the same compound, the CHLORIDE [1] was 100.67 MEQ/L, the CHOLESTEROL [1] was 67.33 mg/dL and the “CREATINE PHOSPHOKINASE” value [1] was 365.67 u/L. For the same compound, the CREATININE [1] was 0.22 mg/dL, the GLUCOSE [1] was 144 mg/dL and the “LACTATE DEHYDROGENASE” value [1] was 331.67 u/L. It also gave a PHOSPHORUS [1] of 12.13 mg/dL, a POTASSIUM [1] of 6.95 MEQ/L and an SODIUM [1] of 142.77 MEQ/L. The “TOTAL BILIRUBIN” value [1] was 0.23 mg/dL, the “TOTAL PROTEIN” value [1] was 5.77 G/DL and the “URIC ACID” value [1] was 1.33 mg/dL. For the same compound, the “ABSOLUTE BASOPHIL” value [2] was 0 CELLS/uL, the “ABSOLUTE EOSINOPHIL” value [2] was 41.33 CELLS/uL and the “ABSOLUTE LYMPHOCYTE” value [2] was 15492.33 CELLS/uL. The “ABSOLUTE MONOCYTE” value [2] was 306.33 CELLS/uL, the “ABSOLUTE SEGMENTED NEUTROPHIL” value [2] was 660 CELLS/uL and the BASOPHIL [2] was 0%. For the same compound, the EOSINOPHIL [2] was 0.33%, the “ERYTHROCYTE COUNT” value [2] was 5.54 x10E6/uL and the HEMATOCRIT [2] was 34.03%. For the same compound, the HEMOGLOBIN [2] was 13.7 G/DL, the “LEUKOCYTE COUNT” value [2] was 16.5 x10E3/uL and the LYMPHOCYTE [2] was 94%. For the same compound, the “MEAN CORPUSCULAR HEMOGLOBIN” value [2] was 24.73 pg, the “MEAN CORPUSCULAR HEMOGLOBIN CONCENTRATION” value [2] was 40.23 G/DL and the “MEAN CORPUSCULAR VOLUME” value [2] was 61.4 fL. For the same compound, the MONOCYTE [2] was 1.67%, the “NUCLEATED RED BLOOD CELLS” value [2] was 0.33 /100WBC and the “PLATELET COUNT” value [2] was 1313.33 x10E3/uL. For the same compound, the “ALANINE AMINOTRANSFERASE” value [2] was 58.33 u/L, the ALBUMIN [2] was 4.03 G/DL and the “ALKALINE PHOSPHATASE” value [2] was 397.67 u/L. For the same compound, the “ASPARTATE AMINOTRANSFERASE” value [2] was 92.67 u/L, the “BLOOD UREA NITROGEN” value [2] was 17.67 mg/dL and the “CARBON DIOXIDE” value [2] was 31.33 mmol/L. For the same compound, the CHLORIDE [2] was 100 MEQ/L, the CHOLESTEROL [2] was 76.33 mg/dL and the “CREATINE PHOSPHOKINASE” value [2] was 598 u/L. The CREATININE [2] was 0.26 mg/dL, the GLUCOSE [2] was 165.33 mg/dL and the “LACTATE DEHYDROGENASE” value [2] was 117 u/L. The PHOSPHORUS [2] was 11.5 mg/dL, the POTASSIUM [2] was 6.64 MEQ/L and the SODIUM [2] was 144.23 MEQ/L. For the same compound, the “TOTAL BILIRUBIN” value [2] was 0.17 mg/dL, the “TOTAL PROTEIN” value [2] was 5.87 G/DL and the “URIC ACID” value [2] was 1.3 mg/dL. For the same compound, the “ABSOLUTE BASOPHIL” value [3] was 0 CELLS/uL, the “ABSOLUTE EOSINOPHIL” value [3] was 0 CELLS/uL and the “ABSOLUTE LYMPHOCYTE” value [3] was 10993 CELLS/uL. For the same compound, the “ABSOLUTE MONOCYTE” value [3] was 34 CELLS/uL, the “ABSOLUTE SEGMENTED NEUTROPHIL” value [3] was 1339.67 CELLS/uL and the BASOPHIL [3] was 0%. For the same compound, the EOSINOPHIL [3] was 0%, the “ERYTHROCYTE COUNT” value [3] was 5.96 x10E6/uL and the HEMATOCRIT [3] was 37.17%. For the same compound, the HEMOGLOBIN [3] was 14.47 G/DL, the “LEUKOCYTE COUNT” value [3] was 12.37 x10E3/uL and the LYMPHOCYTE [3] was 88.67%. The “MEAN CORPUSCULAR HEMOGLOBIN” value [3] was 24.27 pg, the “MEAN CORPUSCULAR HEMOGLOBIN CONCENTRATION” value [3] was 38.97 G/DL and the “MEAN CORPUSCULAR VOLUME” value [3] was 62.4 fL. The MONOCYTE [3] was 0.33%, the “NUCLEATED RED BLOOD CELLS” value [3] was 0 /100WBC and the “PLATELET COUNT” value [3] was 1496.67 x10E3/uL. For the same compound, the “ALANINE AMINOTRANSFERASE” value [3] was 47.33 u/L, the ALBUMIN [3] was 4.57 G/DL and the “ALKALINE PHOSPHATASE” value [3] was 338 u/L. For the same compound, the “ASPARTATE AMINOTRANSFERASE” value [3] was 86.67 u/L, the “BLOOD UREA NITROGEN” value [3] was 22 mg/dL and the “CARBON DIOXIDE” value [3] was 32 mmol/L. For the same compound, the CHLORIDE [3] was 99 MEQ/L, the CHOLESTEROL [3] was 76 mg/dL and the “CREATINE PHOSPHOKINASE” value [3] was 389.67 u/L. For the same compound, the CREATININE [3] was 0.21 mg/dL, the GLUCOSE [3] was 156.33 mg/dL and the “LACTATE DEHYDROGENASE” value [3] was 197.67 u/L. The PHOSPHORUS [3] was 12.37 mg/dL, the POTASSIUM [3] was 6.51 MEQ/L and the SODIUM [3] was 142.77 MEQ/L. For the same compound, the “TOTAL BILIRUBIN” value [3] was 0.17 mg/dL, the “TOTAL PROTEIN” value [3] was 6.4 G/DL and the “URIC ACID” value [3] was 2.33 mg/dL. The “ABSOLUTE BASOPHIL” value [4] was 0 CELLS/uL, the “ABSOLUTE EOSINOPHIL” value [4] was 126 CELLS/uL and the “ABSOLUTE LYMPHOCYTE” value [4] was 16262 CELLS/uL. The “ABSOLUTE MONOCYTE” value [4] was 538.67 CELLS/uL, the “ABSOLUTE SEGMENTED NEUTROPHIL” value [4] was 2873.33 CELLS/uL and the BASOPHIL [4] was 0%. The EOSINOPHIL [4] was 0.67%, the “ERYTHROCYTE COUNT” value [4] was 5.73 x10E6/uL and the HEMATOCRIT [4] was 35.13%. For the same compound, the HEMOGLOBIN [4] was 14.03 G/DL, the “LEUKOCYTE COUNT” value [4] was 19.8 x10E3/uL and the LYMPHOCYTE [4] was 82.33%. The “MEAN CORPUSCULAR HEMOGLOBIN” value [4] was 24.47 pg, the “MEAN CORPUSCULAR HEMOGLOBIN CONCENTRATION” value [4] was 40 G/DL and the “MEAN CORPUSCULAR VOLUME” value [4] was 61.27 fL. For the same compound, the MONOCYTE [4] was 2.67%, the “NUCLEATED RED BLOOD CELLS” value [4] was 0 /100WBC and the “PLATELET COUNT” value [4] was 1243.33 x10E3/uL. The “ALANINE AMINOTRANSFERASE” value [4] was 47.33 u/L, the ALBUMIN [4] was 3.73 G/DL and the “ALKALINE PHOSPHATASE” value [4] was 287.33 u/L. The “ASPARTATE AMINOTRANSFERASE” value [4] was 77.33 u/L, the “BLOOD UREA NITROGEN” value [4] was 29.67 mg/dL and the “CARBON DIOXIDE” value [4] was 27.67 mmol/L. The CHLORIDE [4] was 99.33 MEQ/L, the CHOLESTEROL [4] was 72.33 mg/dL and the “CREATINE PHOSPHOKINASE” value [4] was 467.33 u/L. For the same compound, the CREATININE [4] was 0.34 mg/dL, the GLUCOSE [4] was 139 mg/dL and the “LACTATE DEHYDROGENASE” value [4] was 171.67 u/L. The PHOSPHORUS [4] was 10.27 mg/dL, the POTASSIUM [4] was 6.39 MEQ/L and the SODIUM [4] was 143.07 MEQ/L. For the same compound, the “TOTAL BILIRUBIN” value [4] was 0.13 mg/dL, the “TOTAL PROTEIN” value [4] was 6.03 G/DL and the “URIC ACID” value [4] was 1.4 mg/dL.
